Laboratory results: US4361703A, “Para-amino(or nitro)phenyl N-acetylaminothioalkanoates” (priority 1977, dated 1982)

Legend:
hog liver esterase = assay: in vitro; type: in vitro ADME; conditions: 30° C.
Experimental: (§1) PREPARATION OF TRIS BUFFER
(§2) 0.05 M tris buffer was made by dissolving 6.05 grams of tris-(hydroxymethyl)-methylamine in 1000 ml. of water, and adjusting the pH to 7.2 by the addition of 0.1 M HCl.
(§3) Standard solutions of 1×10^-4 M Compound A in analytical grade methanol (0.01 ml) were prepared, and tested in the simulated gastric and intestinal fluids, in tris buffer alone, in tris buffer with added hog liver esterase and also in serum. The solutions under test were incorporated in 1 ml. of each of the test fluids. A temperature of 30° C. was used for the assays involving the hog liver esterase, whereas a temperature of 37° C. was used for the assays involving the simulated gastric and intestinal fluids and the serum. After this, the mixture was allowed to stand and the supernatant liquid was spotted onto silica t.l.c. plates and developed in 90:10 chloroform/methanol. The mixture was then extracted with 5 mls of chloroform and the chloroform-containing mixture was filtered through phase-separating papers, which allow only the chloroform solution to pass through. The chloroform solution was also spotted onto silica t.l.c. plates and developed in 90:10 chloroform/methanol.

in vitro = in vitro ADME, hog; conditions: pig, pH 7.2; tris buffer plus hog liver esterase, 30° C.
Experimental: as §1, §2, §3

[1] = Hydrolysis stability in human serum; type: in vitro ADME; conditions: 37° C.; for half-life: human serum from two volunteers
Experimental: The serum used in the assays was prepared by taking whole blood into plain tubes, incubating for one hour at 37° C., and then centrifuging at 2000 RPM for 10 minutes.
as §3

[2] = system: Charles River (CD-1 COBS) albino mice; assay: in vivo
Experimental: (E)--Investigation of Acute Oral Toxicity in Mice
Charles River (CD-1 COBS) albino mice, 20-22 g in weight, were kept for some days in an air-conditioned animal house and fed with a standard diet (sterile VAR granules). They were fasted overnight before experiment, with water ad libitum. 15 Male mice and 15 female mice were used for each experiment.
N-Acetyl-para-aminophenol (NAPA) and N-acetyl-para-aminophenyl N'-acetyl-D,L-methionate (Compound A) were then administered to the mice, orally, as a suspension (shaken continuously with an electromagnetic agitator) in 5% gum arabic at a volume of 0.02 ml/g, either individually or in variously proportioned mixtures and at different dose levels, as shown in Table VII below.
A control group received only the 5% gum arabic vehicle.

[3] = Serum "total NAPA" in beagle dogs; type: in vivo; conditions: oral, last dose after 23 days
Experimental: (B)--Investigation of Serum Concentrations in Beagle Dogs
6 Beagle dogs (3 males and 3 females) were dosed once a day (at 08.00 hrs. each day) for 23 days with Compound A, suspended in 1% gum tragacanth, which was administered orally by oesophageal tube, at a rate of either 432 mg/kg (2 dogs, 1 male and 1 female) or 675 mg/kg (4 dogs, 2 male and 2 female). During this period the dogs received their usual food and water until 16.00 hrs. on the day before the test; but from that time until 08.00 hrs. on the day of the test they were given no food, although they received their usual drinking water. The usual dosage of Compound A was however given to the animal at 08.00 hrs. on the day of the test.
Without any further feeding, serum samples were then taken from each animal 2, 4 and 6 hours after the oral administration of Compound A, thus at 10.00 hrs., 12.00 hrs. and 14.00 hrs. on the day of the test. After the 6-hour serum sample had been taken, the animals received their usual food for a while; but they were again made to fast for 12 hours from 20.00 hrs. on the day of the test until 08.00 hrs. on the following day, when the last, 24-hour serum sample was taken. […]

[4] = Hydrolysis stability in simulated intestinal fluid; type: physicochemical
Experimental: (§4) In order first to evaluate the stability of Compound A in the gastro-intestinal tract, simulated gastric and intestinal fluids and other test fluids were prepared as follows:
PREPARATION OF SIMULATED INTESTINAL FLUID
6.1 grams of monobasic potassium phosphate and 3.9 grams of disodium hydrogen phosphate were dissolved in 1000 ml. of water. The pH of the resulting solution was 6.85.
as §3

[5] = Hydrolysis stability in tris buffer; type: physicochemical
Experimental: as §1, §2, §3

[6] = Hydrolysis stability in simulated gastric fluid; type: physicochemical
Experimental: as §4
PREPARATION OF SIMULATED GASTRIC FLUID
0.35 gram of sodium chloride, 0.5 gram of glycine and 94 ml of M hydrochloric acid were mixed, and the volume was then made up to 1000 ml with distilled water. The pH of this system was about 1.79.
as §3

in vivo = conditions: mouse, po
Experimental: (A)--Investigation of Serum Concentrations in Mice
36 Charles River COBS mice (18 males and 18 females) weighing 30 g each were deprived of food for 16 hours before the trial but were given their usual drinking water. Three groups, each containing 6 males and 6 females, received a dosage of 1 ml/100 g body weight per mouse, orally by stomach tube, of a suspension in 1% gum tragacanth of respectively:
Group X: 500 mg/kg of N-acetyl-para-aminophenol
A blood sample was taken by throat-slitting from one male and one female from each Group at each study time, i.e. 1/2, 1, 2, 4 and 24 hours after the oral administration.
At times 1/2, 1, 2 and 4 hours, each serum sample was divided into three 0.1 ml trial samples for the following three determinations:
This determination was carried out by direct extraction, with no prior hydrolysis, according to an adaptation of the above-mentioned method.

## CSCCC(NC(C)=O)C(=O)Oc1ccc(NC(C)=O)cc1 (racemic) [Compound A, N-acetyl-para-aminophenyl N'-acetyl-D,L-methionate]
Hog liver esterase
  effect of hog liver esterase on the rate of hydrolysis: no effect on the rate of hydrolysis
In vitro
  half-life: ~7.92 h
[1]
  effect of human serum on the rate of hydrolysis: increased the rate of hydrolysis
  half-life: 2.5 h
[1]; human, serum, read-out: half-life
  half-life: 2.33 h
[2]; mouse, in vivo
  behaviour / symptoms: hypothermia, tremor, tail extension, epistaxis and acrocyanosis, followed by death
[2]; oral, mice
  LD50 compared with NAPA: several times greater than that of the well-tried analgesic NAPA
[3]
  recovery of "total NAPA" in serum, time: up to 24 hours
[4]; simulated intestinal fluid, pH 6.85, 37° C.
  half-life: 31.5 h
[4]; simulated intestinal juice, 37° C.
  rate of hydrolysis: very slow
[5]; pH 7.2, tris buffer pH 7.2, 30° C.
  half-life: ~7.92 h
[5]; pH 7.2, tris buffer pH 7.2, 37° C.
  half-life: 4 h
[6]; pH 1.79, simulated gastric fluid, pH about 1.79, 37° C.
  half-life: 40 h
[6]; simulated gastric juice, 37° C.
  rate of hydrolysis: very slow

## CC(=O)Nc1ccc(O)cc1 [NAPA, N-acetyl-para-aminophenol]
In vivo; 500 mg/kg, Serum "free NAPA"
  concentration at 2 h: 97000 ng/mL
  concentration at 4 h: 32000 ng/mL
In vivo; 1073 mg/kg
  concentration at 4 h: 32000 ng/mL
